One data set concerns the target T1, rat ACC1 (Rattus norvegicus, UniProt P11497).
T1 construct: purchased Huawei Pharmaceutical Co. Ltd (Shanghai, China)
Put plainly: ACC1 in vitro assay (Kinase-Glo Plus luminescence). It is filed as biochemical. The conditions noted are these: arithmetic means of three experiments, standard deviation in parentheses. The method, then: (§1) To investigate the biological activities of the synthesized compounds, the in vitro inhibitory activities of these compounds against both rat ACC1 and ACC2 were evaluated according to the previous experimental method with some changes. The ACC1 and ACC2 enzymes were supplied by Huawei Pharmaceutical Co. Ltd (Shanghai, China). […] Then, the solution was diluted with buffer solution until it reached the required concentration (1 nM to 10 μM) and 5μL of the dilution was added to a 50 μL reaction mixture containing 30 mM HEPES, pH 7.4, 2 mM MgCl2, 2 mM sodium citrate, 1 mM DTT, 25 μM ATP, 16 mM NaHCO3 and 15 μM acetyl-CoA. All of the enzymatic reactions were conducted at 30 °C for 60 min. The assay was performed using Kinase-Glo Plus luminescence kinase assay kit (Beijing, China), which measures kinase activity by quantifying the amount of ATP remaining in solution following a kinase reaction. The luminescent signal from the assay […] with the amount of kinase activity. The same concentrations of DMSO were tested in parallel and used as background control. The inhibition percentage was expressed as the average value from three independent experiments.

The target in the next data set is T2, rat ACC2 (Rattus norvegicus, UniProt D3ZBE2).
T2 construct: purchased Huawei Pharmaceutical Co. Ltd (Shanghai, China)
Kind of data set: ACC2 in vitro assay (Kinase-Glo Plus luminescence). The conditions noted are these: arithmetic means of three experiments, standard deviation in parentheses. It is filed as biochemical. The method, then: as §1
Background: In Kinase-Glo more light means more ATP remaining.

Data set [1] concerns human embryonic lung fibroblast (HELF) cells. Kind of data set: In vitro cytotoxicity, MTT test. In kind it is cell-based. The conditions noted are these: HELF (WI-38) cells, 48 h incubation. The method, then:
In the cytotoxicity experiment, tetrazolium-based colorimetric assay (MTT test) was used to measure the cytotoxic effect of these selected potent compounds on normal cells. Human embryonic lung fibroblast cell line (HELF, WI-38) was purchased from the Cell Resource Center, Chinese Academy of Medical Sciences (Beijing, China). Briefly, cells (5000 per well) were collected and seeded in 96-well plates. After incubation for 24 h, cells were exposed to fresh medium containing various concentrations of test compound at 37 °C. After incubation for 48 h, 20 μL of MTT tetrazolium salt dissolved in phosphate buffered saline (PBS) at a concentration of 5 mg/mL was added to each well and incubated in a CO2 incubator for 4 h. The medium was then aspirated from each well and 150 μL of DMSO was added to dissolve formazan crystals. The absorbance of each well was measured by ELx808 Microplate Reader (BioTek, Winooski, VT, USA) at a test wavelength of 490 nm. TC50, the drug concentration which reduces the cell viability by 50% was calculated by the Logit method.
A general note: Tetrazolium assays rely on reduction of a dye to a coloured formazan, in cell work by metabolically active cells.

A further data set deals with ACC2. Also on record: method as in PMID 12842871, PMID 25333641. The conditions noted are these: ACC2 from mammalia; read-out: IC50 against ACC2; cited from earlier work.
Another data set relates to ACC1. Set-up: method as in PMID 12842871, PMID 25333641. The conditions noted are these: ACC1 from mammalia; read-out: IC50 against ACC1; cited from earlier work.

T2 sequence (D3ZBE2 17-2459): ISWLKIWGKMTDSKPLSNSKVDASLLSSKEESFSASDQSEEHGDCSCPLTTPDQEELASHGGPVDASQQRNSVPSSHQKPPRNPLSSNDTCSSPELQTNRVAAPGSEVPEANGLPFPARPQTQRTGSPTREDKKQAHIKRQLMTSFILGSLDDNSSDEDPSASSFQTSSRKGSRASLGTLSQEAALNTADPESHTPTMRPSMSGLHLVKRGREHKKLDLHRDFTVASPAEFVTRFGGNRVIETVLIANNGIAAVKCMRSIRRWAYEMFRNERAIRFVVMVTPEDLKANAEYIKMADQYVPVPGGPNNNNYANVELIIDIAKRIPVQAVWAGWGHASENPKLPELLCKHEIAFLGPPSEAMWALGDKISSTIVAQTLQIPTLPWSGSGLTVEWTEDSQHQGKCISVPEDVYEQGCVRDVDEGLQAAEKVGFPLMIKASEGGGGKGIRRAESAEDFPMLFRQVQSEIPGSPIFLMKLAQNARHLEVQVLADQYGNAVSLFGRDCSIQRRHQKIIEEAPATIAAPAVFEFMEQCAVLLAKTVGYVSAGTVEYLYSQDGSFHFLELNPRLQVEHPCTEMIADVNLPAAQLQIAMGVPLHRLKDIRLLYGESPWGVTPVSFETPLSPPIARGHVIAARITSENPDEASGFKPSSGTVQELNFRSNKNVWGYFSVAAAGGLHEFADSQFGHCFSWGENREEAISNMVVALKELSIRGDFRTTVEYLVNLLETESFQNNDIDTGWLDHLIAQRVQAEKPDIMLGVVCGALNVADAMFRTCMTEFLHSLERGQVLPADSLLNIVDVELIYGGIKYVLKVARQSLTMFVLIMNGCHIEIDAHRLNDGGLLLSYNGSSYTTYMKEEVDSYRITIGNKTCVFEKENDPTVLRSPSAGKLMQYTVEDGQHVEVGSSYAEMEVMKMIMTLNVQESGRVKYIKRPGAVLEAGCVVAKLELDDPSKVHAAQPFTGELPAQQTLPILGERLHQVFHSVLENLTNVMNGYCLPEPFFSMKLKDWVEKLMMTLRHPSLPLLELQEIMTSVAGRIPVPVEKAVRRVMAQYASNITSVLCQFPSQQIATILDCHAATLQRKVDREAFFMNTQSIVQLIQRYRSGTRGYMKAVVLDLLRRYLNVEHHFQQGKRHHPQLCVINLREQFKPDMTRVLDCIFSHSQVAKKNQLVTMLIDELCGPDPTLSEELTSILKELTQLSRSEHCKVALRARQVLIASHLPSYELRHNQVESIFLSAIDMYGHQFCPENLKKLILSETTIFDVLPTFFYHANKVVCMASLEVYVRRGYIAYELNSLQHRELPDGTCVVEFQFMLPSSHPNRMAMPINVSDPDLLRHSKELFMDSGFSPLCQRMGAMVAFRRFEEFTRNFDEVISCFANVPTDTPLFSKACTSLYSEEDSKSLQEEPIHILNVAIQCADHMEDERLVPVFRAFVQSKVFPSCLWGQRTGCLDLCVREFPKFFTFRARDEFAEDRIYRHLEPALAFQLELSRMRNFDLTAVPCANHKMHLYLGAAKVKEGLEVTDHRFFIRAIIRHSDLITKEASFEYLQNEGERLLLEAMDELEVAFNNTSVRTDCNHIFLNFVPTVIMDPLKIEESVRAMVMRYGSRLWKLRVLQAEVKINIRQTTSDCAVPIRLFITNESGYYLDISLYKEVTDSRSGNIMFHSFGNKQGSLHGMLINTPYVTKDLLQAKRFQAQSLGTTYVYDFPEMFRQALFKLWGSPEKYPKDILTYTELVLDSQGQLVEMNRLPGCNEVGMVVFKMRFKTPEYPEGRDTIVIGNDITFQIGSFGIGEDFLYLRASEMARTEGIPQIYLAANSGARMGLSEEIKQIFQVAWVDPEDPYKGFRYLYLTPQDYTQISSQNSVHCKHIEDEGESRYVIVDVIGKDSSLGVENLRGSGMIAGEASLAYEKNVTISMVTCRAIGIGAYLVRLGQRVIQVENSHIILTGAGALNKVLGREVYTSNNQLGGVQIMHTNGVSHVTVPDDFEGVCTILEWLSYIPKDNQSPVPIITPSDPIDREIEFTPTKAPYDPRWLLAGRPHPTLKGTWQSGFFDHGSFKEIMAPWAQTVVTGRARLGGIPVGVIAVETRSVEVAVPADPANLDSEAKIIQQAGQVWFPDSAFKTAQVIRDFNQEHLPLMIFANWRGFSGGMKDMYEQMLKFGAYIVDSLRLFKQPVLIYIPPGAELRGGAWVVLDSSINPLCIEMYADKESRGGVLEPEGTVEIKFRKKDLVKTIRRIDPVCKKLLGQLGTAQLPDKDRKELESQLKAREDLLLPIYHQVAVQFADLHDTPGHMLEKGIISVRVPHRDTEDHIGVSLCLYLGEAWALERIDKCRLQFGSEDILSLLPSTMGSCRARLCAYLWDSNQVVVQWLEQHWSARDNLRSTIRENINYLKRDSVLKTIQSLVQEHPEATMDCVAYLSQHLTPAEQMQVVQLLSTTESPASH

`COc1ccc(-c2cc(C(=O)N3CCC(N4CCC[C@@H](C(=O)N(C)Cc5ccccc5)C4)CC3)c3ccccc3n2)cc1` [7b, (R)-N-Benzyl-1'-(2-(4-methoxyphenyl)quinoline-4-carbonyl)-N-methyl-[1,4'-bipiperidine]-3-carbox-amide] registered a melting point of 90 to 92 °C. In addition, the IC50 on rat ACC1 worked out at 750 nM. Moreover, at rat ACC2, the IC50 was found to be 360 nM. Further, the “TC50 (concentration which reduces the cell viability by 50%)” value in data set [1] is over 100000 nM.

Compound `O=C(c1cc(-c2ccc(Cl)cc2)nc2ccccc12)N1CCC(N2CCC[C@@H](C(=O)N3CCOCC3)C2)CC1` [7h, (R)-(2-(4-Chlorophenyl)quinolin-4-yl)(3-(morpholine-4-carbonyl)-[1,4'-bipiperidin]-1'-yl)methanone] displayed a melting point of 87 to 89 °C. Besides, the IC50 at rat ACC1 is over 1000 nM. Moreover, on rat ACC2, the IC50 was over 1000 nM.

For `O=C(c1cc(-c2ccccc2Cl)nc2ccccc12)N1CCC(N2CCC[C@@H](C(=O)N3CCOCC3)C2)CC1` [7i, (R)-(2-(2-Chlorophenyl)quinolin-4-yl)(3-(morpholine-4-carbonyl)-[1,4'-bipiperidin]-1'-yl)methanone], the IC50 on rat ACC1 and on rat ACC2 was over 1000 nM each time.

As to `COc1ccc(-c2cc(C(=O)N3CCC4(CC3)CC(=O)c3ccccc3O4)c3ccccc3n2)cc1OC` [12b, 1'-(2-(3,4-Dimethoxyphenyl)quinoline-4-carbonyl)spiro[chroman-2,4'-piperidin]-4-one], the IC50 stood at 760 nM at rat ACC1 and 820 nM at rat ACC2. Besides, the “TC50 (concentration which reduces the cell viability by 50%)” value in data set [1] is over 100000 nM.

For `COc1ccc(-c2cc(C(=O)N3CCC(N4CCC[C@@H](C(=O)N5CCCC5)C4)CC3)c3ccccc3n2)cc1` [7e, (R)-(2-(4-Methoxyphenyl)quinolin-4-yl)(3-(pyrrolidine-1-carbonyl)-[1,4'-bipiperidin]-1'-yl)methanone], the IC50 on rat ACC1 is 750 nM; on rat ACC2, 382 nM. Besides, in data set [1], the “TC50 (concentration which reduces the cell viability by 50%)” value is over 100000 nM.

Consider `O=C(c1c2ccccc2cc2ccccc12)N1CCC(N2CCC[C@@H](C(=O)N3CCOCC3)C2)CC1` [CP-640186, reference compound], for which the IC50 is about 50 nM with ACC2, 185 nM at rat ACC2 and about 50 nM with ACC1. Besides, the “TC50 (concentration which reduces the cell viability by 50%)” value in data set [1] was over 100000 nM.

`CCN(CC)C(=O)[C@@H]1CCCN(C2CCN(C(=O)c3cc(-c4ccc(OC)cc4)nc4ccccc34)CC2)C1` [7c, (R)-N,N-Diethyl-1'-(2-(4-methoxyphenyl)quinoline-4-carbonyl)-[1,4'-bipiperidine]-3-carboxamide] yielded a melting point of 101 to 102 °C. In addition, at rat ACC1, the IC50 was determined as 940 nM. For the same compound, at rat ACC2, the IC50 is 205 nM. Moreover, the “TC50 (concentration which reduces the cell viability by 50%)” value in data set [1] is over 100000 nM.

For the compound `O=C1CC2(CCN(C(=O)c3cc(-c4ccccc4Cl)nc4ccccc34)CC2)Oc2ccccc21` [12d, 1'-(2-(2-Chlorophenyl)quinoline-4-carbonyl)spiro[chroman-2,4'-piperidin]-4-one], the values for the IC50 on rat ACC1 and on rat ACC2 were over 1000 nM and 940 nM, respectively.

In the case of `COc1ccc(-c2cc(C(=O)N3CCC(N4CCC[C@@H](C(=O)N5CCN(C)CC5)C4)CC3)c3ccccc3n2)cc1` [7d, (R)-(2-(4-Methoxyphenyl)quinolin-4-yl)(3-(4-methylpiperazine-1-carbonyl)-[1,4'-bipiperidin]-1'-yl)-methanone], the melting point was in the range of 108 to 110 °C. In addition, on rat ACC1, the IC50 was 620 nM. Further, on rat ACC2, the IC50 turned out to be 294 nM. In data set [1], the “TC50 (concentration which reduces the cell viability by 50%)” value is over 100000 nM.

Take `O=C1CC2(CCN(C(=O)c3cc(-c4ccc(Cl)cc4)nc4ccccc34)CC2)Oc2ccccc21` [12e, 1'-(2-(4-Chlorophenyl)quinoline-4-carbonyl)spiro[chroman-2,4'-piperidin]-4-one]: the IC50 at rat ACC1 and at rat ACC2 was over 1000 nM in each case.

In the case of `COc1ccc(-c2cc(C(=O)N3CCC4(CC3)CC(=O)c3ccccc3O4)c3ccccc3n2)cc1` [12a, 1'-(2-(4-Methoxyphenyl)quinoline-4-carbonyl)spiro[chroman-2,4'-piperidin]-4-one], the IC50 on rat ACC1 is 600 nM; at rat ACC2 it was 650 nM. Further, the “TC50 (concentration which reduces the cell viability by 50%)” value in data set [1] was over 100000 nM.

Consider `O=C1CC2(CCN(C(=O)c3cc(Cl)nc4ccccc34)CC2)Oc2ccccc21` [12f, 1'-(2-Chloroquinoline-4-carbonyl)spiro[chroman-2,4'-piperidin]-4-one], for which the IC50 on rat ACC1 and at rat ACC2 was over 1000 nM in each case.

With `Cc1ccccc1-c1cc(C(=O)N2CCC3(CC2)CC(=O)c2ccccc2O3)c2ccccc2n1` [12c, 1'-(2-(o-Tolyl)quinoline-4-carbonyl)spiro[chroman-2,4'-piperidin]-4-one], the IC50 on rat ACC1 and at rat ACC2 was over 1000 nM in each case.

Compound `COc1ccc(-c2cc(C(=O)N3CCC(N4CCC[C@@H](C(=O)N5CCCCC5)C4)CC3)c3ccccc3n2)cc1` [7f, (R)-(2-(4-Methoxyphenyl)quinolin-4-yl)(3-(piperidine-1-carbonyl)-[1,4′-bipiperidin]-1′-yl)methanone] yielded a melting point of 89 to 91 °C. Moreover, on rat ACC1, the IC50 is over 1000 nM. Moreover, at rat ACC2, the IC50 was found to be 920 nM.

Compound `O=C1CC2(CCN(C(=O)c3cc(N4CCOCC4)nc4ccccc34)CC2)Oc2ccccc21` [12g, 1'-(2-Morpholinoquinoline-4-carbonyl)spiro[chroman-2,4'-piperidin]-4-one] gave a melting point of 138 to 140 °C. The IC50 at rat ACC1 was over 1000 nM. On rat ACC2, the IC50 is over 1000 nM.

For the compound `COc1ccc(-c2cc(C(=O)N3CCC(N4CCC[C@@H](C(=O)N5CCOCC5)C4)CC3)c3ccccc3n2)cc1` [7a, (R)-(2-(4-Methoxyphenyl)quinolin-4-yl)(3-(morpholine-4-carbonyl)-[1,4′-bipiperidin]-1′-yl)methanone], the IC50 on rat ACC1 came out at 189 nM; on rat ACC2 it was 172 nM. Besides, in data set [1], the “TC50 (concentration which reduces the cell viability by 50%)” value is over 100000 nM.

The compound `O=C(c1cc(-c2ccccc2)nc2ccccc12)N1CCC(N2CCC[C@@H](C(=O)N3CCOCC3)C2)CC1` [7g, (R)-(3-(Morpholino-4-carbonyl)-[1,4'-bipiperidin]-1'-yl)(2-phenylquinolin-4-yl)methanone] displayed a melting point of 92 to 93 °C. In addition, the half-maximal inhibitory concentration (IC50) at rat ACC1 was 860 nM. The IC50 on rat ACC2 came to 810 nM. Besides, in data set [1], the “TC50 (concentration which reduces the cell viability by 50%)” value is over 100000 nM.

One may read the melting point as the temperature, or range, at which the solid turns liquid. In general, IC50 refers to the midpoint of a concentration-inhibition curve.

Values taken from publication PMC6332354 (Molecules, 2015).
